Measurements reported in patent publication US20030206946A1, “Methods for therapy of connective tissue disease” (priority 2002, published 2003).

Experiments:
[1] = tested on: adjuvant arthritis, left hind paw (without CFA); test: Adjuvant arthritis (CFA), Delayed Phase, contralateral left hind paw volume; assay type: in vivo, Long Evans rats; settings: for systematic inhibition effect in delayed phase (left paw), in words: summary of Table 2
Experimental: (§1) A well-ground suspension of killed Mycobacterium tuberculosis (DIFCO, USA; 0.3 mg in 0.1 ml of light mineral oil; Complete Freund's Adjuvant, CFA) was administered into the subplantar region of the right hind paw immediately after first dosing on first day (denoted day 1). Hind paw volume was measured by Plethsmometer (Cat. No. 7150, UGO BASILE, Italy) and Water cell (25 mm diameter, Cat. No. 7157, UGO BASILE, Italy) on day 0 (before CFA treated), 1, 5, 10, and 15 after CFA of right paw (with CFA), and day 0, 14, and 18 of left paw (without CFA); rats were weighed just before first dose and 1 hour after final dose. Right hind paw volume (Acute Phase) was measured 4 hours after CFA treated (denoted as day 1) and day 5, day 10 and day 15 after CFA. The contralateral left hind paw volume (Delayed Phase) was measured at day 14 and day 18. The inflammatory activity in this model was denoted by values calculated during the Acute Phase as well as the Delayed Phase.
(§2) The animal model for connective tissue disease was established according to the report by Winter C A, et al., Arthritis Rheum. 1966, 9:394-404. Groups of 5 Long Evans rats weighing 150±20 g were used. The 10% of phenylbutyrate cream and 1% of trichostatin A ointment at a dose of 200 mg/paw and 10 mg/paw, respectively, were applied topically twice daily for 18 consecutive days. A well-ground suspension of killed Mycobacterium tuberculosis (DIFCO, USA; 0.3 mg in 0.1 ml of light mineral oil; Complete Freund's Adjuvant, CFA) was administered into the subplantar region of the right hind paw immediately after first dosing on first day (denoted day 1). Hind paw volume was measured by Plethsmometer (Cat. No. 7150, UGO BASILE, Italy) and Water cell (25 mm diameter, Cat. No. 7157, UGO BASILE, Italy) on day 0 (before CFA treated), 1, 5, 10, and 15 after CFA of right paw (with CFA), and day 0, 14, and 18 of left paw (without CFA); rats were weighed just before first dose and 1 hour after final dose. Anti-inflammatory activity in this model was denoted by values calculated during the Acute Phase (the right hind paw volume) as well as the Delayed Phase (the contralateral left hind paw volume). For CFA-injected vehicle control rats, animals were also weighed on day 0 and day 18; CFA-injected vehicle control animals generally gain between 20 to 40 g body weight over this time period. A 30% or more reduction in paw volume relative to vehicle treated controls was considered significant.

[2] = tested on: synovial fibroblasts from adjuvant arthritis; test: Proliferation of synovial fibroblasts by 3H-thymidine incorporation; assay type: cell-based, rats; settings: 3H-thymidine present during last 24 hours of culture; relative to control culture
Experimental: (§3) At day 10, synovial samples were obtained from the established adjuvant arthritis rats. The collected synovial tissues were digested with 5 mg/ml collagenase (sigma) and 1.5 mg/ml DNase (sigma), and were passed through a wire mesh to prepare isolated cells. Cells (0.5×10^6) were placed in 10-cm dishes with 10 ml RPMI 1640 medium (Gibco) supplemented with 10% fetal calf serum, 2 mM L-glutamine, 50 U/ml penicillin and […] streptomycin. Cells were detached with trypsin-EDTA solution and passed for subculture when 90% confluency was reached. The synovial cells used were of passage 5. Proliferating synovial fibroblasts from adjuvant arthritis were treated with phenylbutyrate or trichostatin A, and proliferation was determined by incorporation of ^3H-thymidine, which was present during last 24 hours of culture. 4-phenylbutyrate (Merck) dissolved in sterile water with NaOH and adjusted to pH 7.2, or sodium phenylbutyrate (Triple Crown, U.S.A) dissolved in sterile water or trichostatin A (sigma) dissolved in ethanol were used. […] Hyperacetylated histones were detected by use of the antibody that specifically recognizes the hyperacetylated form of histone H3 (upstate biotechnology).

[3] = tested on: inflammation of skin, joints and soft tissues in connective tissue disease; test: Gross views and histology of paw joints, skin and soft tissues in adjuvant arthritis; assay type: in vivo, Long Evans rats; settings: topical 10% phenylbutyrate cream or 1% trichostatin A ointment vs vehicle
Experimental: as §2, with “A 30% or more reduction in paw volume relative to vehicle treated controls was considered significant.” left out

[4] = tested on: p16 and p21 in synovial fibroblasts from adjuvant arthritis; test: Western blot of p16 and p21 in synovial fibroblasts; assay type: cell-based, rats; settings: phenylbutyrate 2 mM, trichostatin A 200 nM; 12 h
[5] = tested on: TNF-α in the connective tissues of connective tissue disease; test: TNF-α immunohistochemistry of connective tissues in adjuvant arthritis; assay type: in vivo, Long Evans rats; settings: treated vs vehicle group
histone deacetylases = settings: background statement; cited from earlier work
[6] = tested on: p16 in the synovium of connective tissue disease; test: p16 immunohistochemistry of synovium in adjuvant arthritis; assay type: in vivo, Long Evans rats; settings: treated vs vehicle group
Excerpt: FIGS. 8G-[…] are from lower magnification to higher magnification showing the severe synovial hyperplasia and panus formation in connective tissue disease deteriorating the cartilage and bone of joints (left panel: H&E stain). In contrast, there is no p16 staining in the invasive synovium of the vehicle group when compared to the synovium in the treated group (right panel: immunohistochemistry).

[7] = tested on: acetylated histone H3 in synovial fibroblasts from adjuvant arthritis; test: Accumulation of acetylated histones in synovial fibroblasts (western blot, immunofluorescence with anti-acetylated H3 antibody); assay type: cell-based, rats; settings: phenylbutyrate 2 mM, trichostatin A 200 nM; 6 h for immunofluorescence
Experimental: as §3, with “biotechnology). […] The results were expressed as percentage value relative to the control culture (no drug addition). […]” for “biotechnology).”

[8] = tested on: adjuvant arthritis, right hind paw (with CFA); test: Adjuvant arthritis (CFA), Acute Phase, right hind paw volume; assay type: in vivo, Long Evans rats
Experimental: as §1, §2

[9] = Acute Phase, right hind paw volume, topical twice daily x 18 days or PO x 5, parentheses mark 30% or more

Row | Compound | systematic inhibition effect in delayed phase (left paw), in words [1] | growth inhibition of synovial fibroblasts [2] | suppression of connective tissue disease (swelling, pannus, synovial hyperplasia, lymphocyte infiltration), in words [3] | upregulation of p16 and p21, cell cycle inhibitors [4] | TNF-α staining in connective tissues [5] | concentration range of histone deacetylase inhibition (histone deacetylases) | p16 expression in synovium [6] | accumulation of acetylated histones [7] | % Inhibition relative to vehicle treated, Day (14-0) ([1]; Delayed Phase, contralateral ankle joint/left hind paw volume, parentheses mark 30% or more) | % Inhibition relative to vehicle treated, Day (18-14) ([1]; Delayed Phase, contralateral left hind paw volume) [%] | % Inhibition relative to vehicle treated, Day (18-0) ([1]; Delayed Phase, contralateral left hind paw volume, parentheses mark 30% or more) [%] | % Inhibition relative to vehicle treated, Day (5-0) [8, 9] | % Inhibition relative to vehicle treated, Day (10-0) [8, 9] | % Inhibition relative to vehicle treated, Day (15-0) [8, 9] [%] | % Inhibition relative to vehicle treated, Day (1-0) ([8]; Acute Phase, unilateral ankle joint/right hind paw volume, topical twice daily x 18 days or PO x 5, parentheses mark 30% or more (significant)) | anti-inflammatory effect in Acute Phase, in words ([8]; right hind paw, summary of Table 2)
1 | O=C(O)CCCc1ccccc1 [phenylbutyrate, 4-phenylbutyrate] | not significant | dose- and time- dependent growth inhibition | pannus formation is blocked | induce upregulation of p16 and p21 | only small amount of TNF-α was stained in the skin | millimolar concentrations | upregulated | induce an accumulation of acetylated histones |  |  |  |  |  |  |  | 
2 | CC(/C=C/C(=O)NO)=C\[C@@H](C)C(=O)c1ccc(N(C)C)cc1 [trichostatin A] | not significant | dose- and time- dependent growth inhibition |  | induce upregulation of p16 and p21 | no TNF-α staining in soft tissues | submicromolar range | upregulates p16 expression | induce an accumulation of acetylated histones |  |  |  |  |  |  |  | 
3 | C[C@]12CCC(=O)C=C1CC[C@@H]1[C@@H]2[C@@H](O)C[C@@]2(C)[C@H]1CC[C@]2(O)C(=O)CO [Hydrocortisone, hydrocortisone] | partially shown |  |  |  |  |  |  |  | (30) % | 20 | 27 | (35) % | (39) % | 23 | (35) % | marked inhibition effect of hydrocortisone is shown on day 1; however, the effect reduces after day 10
